{"source": "paper PMC5218480", "about": "(PLoS ONE, 2017)", "test_system": "MV-4-11 cells", "assay": "Gene expression microarray analysis (Affymetrix PrimeView) and GSEA", "format": "cell-based, human", "design": "RFU PODN (11730768_x_at) / Fold change /veh PODN (11730768_x_at) / RFU LINC00158 (11744669_a_at) / Fold change /veh LINC00158 (11744669_a_at) / RFU DUSP10 (11751237_a_at) / Fold change /veh DUSP10 (11751237_a_at) / RFU ID3 (11757404_x_at) / Fold change /veh ID3 (11757404_x_at) / RFU PLEKHG5 (11737974_s_at) / Fold change /veh PLEKHG5 (11737974_s_at) / RFU LRRC4B (11730491_at) / Fold change /veh LRRC4B (11730491_at) / RFU GIMAP4 (11747438_a_at) / Fold change /veh GIMAP4 (11747438_a_at) / RFU KRT8 (11758183_x_at) / Fold change /veh KRT8 (11758183_x_at) / RFU CNN1 (11734310_a_at) / Fold change /veh CNN1 (11734310_a_at) / RFU VPS37D (11726825_at) / Fold change /veh VPS37D (11726825_at) / RFU C10orf10 (11716522_x_at) / Fold change /veh C10orf10 (11716522_x_at) / RFU KIR2DL2 /// KIR2DL4 /// KIR2DL5A /// KIR2DL5B /// KIR2DS1 /// KIR2DS2 /// KIR2DS3 /// KIR2DS4 /// KIR3DL3 /// KIR3DL3 /// KIR3DS1 (11738374_at) / Fold change /veh KIR2DL2 /// KIR2DL4 /// KIR2DL5A /// KIR2DL5B /// KIR2DS1 /// KIR2DS2 /// KIR2DS3 /// KIR2DS4 /// KIR3DL3 /// KIR3DL3 /// KIR3DS1 (11738374_at) / RFU C1QL1 (11718748_at) / Fold change /veh C1QL1 (11718748_at) / RFU TMPRSS4 (11747572_a_at) / Fold change /veh TMPRSS4 (11747572_a_at) / RFU HAMP (11756126_x_at) / Fold change /veh HAMP (11756126_x_at) / RFU RNFT2 (11725882_a_at) / Fold change /veh RNFT2 (11725882_a_at) / RFU NR4A2 (11747474_a_at) / Fold change /veh NR4A2 (11747474_a_at) / RFU ABCC12 (11746883_a_at) / Fold change /veh ABCC12 (11746883_a_at) / RFU TMEM136 (11760407_x_at) / Fold change /veh TMEM136 (11760407_x_at) / RFU CLDN22 /// WWC2 (11732394_at) / Fold change /veh CLDN22 /// WWC2 (11732394_at) / RFU HLA-DPB1 (11760878_x_at) / Fold change /veh HLA-DPB1 (11760878_x_at) / RFU SPINT1 (11716480_a_at) / Fold change /veh SPINT1 (11716480_a_at) / RFU GAP43 (11754022_s_at) / Fold change /veh GAP43 (11754022_s_at) / RFU A4GNT (11735810_at) / Fold change /veh A4GNT (11735810_at) / RFU PRB3 (11715151_x_at) / Fold change /veh PRB3 (11715151_x_at) / RFU TUBB4B (11761932_at) / Fold change /veh TUBB4B (11761932_at) / RFU CAPN14 (11732068_a_at) / Fold change /veh CAPN14 (11732068_a_at) / RFU TMCC2 (11721928_a_at) / Fold change /veh TMCC2 (11721928_a_at) / RFU IRGQ (11745062_a_at) / Fold change /veh IRGQ (11745062_a_at) / RFU FAM174B (11720279_a_at) / Fold change /veh FAM174B (11720279_a_at) / RFU TMPRSS4 (11748680_a_at) / Fold change /veh TMPRSS4 (11748680_a_at) / RFU FAM212B (11763350_a_at) / Fold change /veh FAM212B (11763350_a_at) / RFU PLEKHG5 (11743358_a_at) / Fold change /veh PLEKHG5 (11743358_a_at) / RFU ZSCAN30 (11745921_a_at) / Fold change /veh ZSCAN30 (11745921_a_at) / RFU CMKLR1 (11741424_a_at) / Fold change /veh CMKLR1 (11741424_a_at) / RFU LOC101060620 /// MAPK8IP1 (11723275_at) / Fold change /veh LOC101060620 /// MAPK8IP1 (11723275_at) / RFU SPTSSB (11747773_x_at) / Fold change /veh SPTSSB (11747773_x_at) / RFU PRSS12 (11739890_at) / Fold change /veh PRSS12 (11739890_at) / RFU BIN1 (11741810_x_at) / Fold change /veh BIN1 (11741810_x_at) / RFU WNT11 (11732464_a_at) / Fold change /veh WNT11 (11732464_a_at) / RFU C10orf10 (11716521_a_at) / Fold change /veh C10orf10 (11716521_a_at) / RFU C5orf56 (11738089_at) / Fold change /veh C5orf56 (11738089_at) / RFU CYB561 (11721691_x_at) / Fold change /veh CYB561 (11721691_x_at) / RFU ANKRD19P (11752326_a_at) / Fold change /veh ANKRD19P (11752326_a_at) / RFU OR2T12 /// OR2T33 /// OR2T8 (11738714_s_at) / Fold change /veh OR2T12 /// OR2T33 /// OR2T8 (11738714_s_at) / RFU VCAN (11748164_a_at) / Fold change /veh VCAN (11748164_a_at) / RFU JSRP1 (11732532_at) / Fold change /veh JSRP1 (11732532_at) / RFU KRTAP10-11 (11738290_x_at) / Fold change /veh KRTAP10-11 (11738290_x_at) / RFU MYO3A (11730013_a_at) / Fold change /veh MYO3A (11730013_a_at) / RFU EBF3 (11725865_a_at) / Fold change /veh EBF3 (11725865_a_at) / RFU CAMK2N1 (11719241_x_at) / Fold change /veh CAMK2N1 (11719241_x_at) / RFU C5orf56 (11738088_a_at) / Fold change /veh C5orf56 (11738088_a_at) / RFU OLFML3 (11715873_a_at) / Fold change /veh OLFML3 (11715873_a_at) / RFU LOC100653217 /// NTM (11731650_a_at) / Fold change /veh LOC100653217 /// NTM (11731650_a_at) / RFU MAPK11 (11762145_a_at) / Fold change /veh MAPK11 (11762145_a_at) / RFU FIZ1 (11724087_x_at) / Fold change /veh FIZ1 (11724087_x_at) / RFU OASL (11726364_x_at) / Fold change /veh OASL (11726364_x_at) / RFU SOX15 (11748057_x_at) / Fold change /veh SOX15 (11748057_x_at) / RFU CD79A (11719716_a_at) / Fold change /veh CD79A (11719716_a_at) / RFU HIST1H1D (11736915_at) / Fold change /veh HIST1H1D (11736915_at) / RFU CASKIN2 (11723855_a_at) / Fold change /veh CASKIN2 (11723855_a_at) / RFU LOC730098 (11760151_x_at) / Fold change /veh LOC730098 (11760151_x_at) / RFU OR4N2 (11742367_at) / Fold change /veh OR4N2 (11742367_at) / RFU PRRT2 (11749266_a_at) / Fold change /veh PRRT2 (11749266_a_at) / RFU SNX32 (11753110_a_at) / Fold change /veh SNX32 (11753110_a_at) / RFU CDHR5 (11726645_a_at) / Fold change /veh CDHR5 (11726645_a_at) / RFU RCAN1 (11760418_a_at) / Fold change /veh RCAN1 (11760418_a_at) / RFU FAM167A (11723789_a_at) / Fold change /veh FAM167A (11723789_a_at) / RFU FAM26E (11764081_at) / Fold change /veh FAM26E (11764081_at) / RFU ISYNA1 (11749810_s_at) / Fold change /veh ISYNA1 (11749810_s_at) / RFU ACY1 (11761880_at) / Fold change /veh ACY1 (11761880_at) / RFU 11764098_at / Fold change /veh 11764098_at / RFU SAMD14 (11745864_x_at) / Fold change /veh SAMD14 (11745864_x_at) / RFU NPB (11741838_a_at) / Fold change /veh NPB (11741838_a_at) / RFU TMPRSS6 (11731388_a_at) / Fold change /veh TMPRSS6 (11731388_a_at) / RFU KRTAP10-2 (11738614_at) / Fold change /veh KRTAP10-2 (11738614_at) / RFU ARHGAP8 /// PRR5-ARHGAP8 (11727945_x_at) / Fold change /veh ARHGAP8 /// PRR5-ARHGAP8 (11727945_x_at) / RFU KRTAP5-7 /// NADSYN1 (11734609_at) / Fold change /veh KRTAP5-7 /// NADSYN1 (11734609_at) / RFU RASL12 (11751679_a_at) / Fold change /veh RASL12 (11751679_a_at) / RFU CDKN2B (11736163_a_at) / Fold change /veh CDKN2B (11736163_a_at) / RFU PRF1 (11729649_at) / Fold change /veh PRF1 (11729649_at) / RFU, ZNF638 /// ZNF638-IT1 / Fold change vs veh, ZNF638 /// ZNF638-IT1 / RFU, PANK3 / Fold change vs veh, PANK3 / RFU, SH3YL1 / Fold change vs veh, SH3YL1 / RFU, ZEB2 / Fold change vs veh, ZEB2 / RFU, NRIP1 / Fold change vs veh, NRIP1 / RFU, PTTG1IP / Fold change vs veh, PTTG1IP / RFU, CAPN2 / Fold change vs veh, CAPN2 / RFU, MED14 / Fold change vs veh, MED14 / RFU, SNORA58 / Fold change vs veh, SNORA58 / RFU, C1orf63 / Fold change vs veh, C1orf63 / RFU, LRRFIP1 / Fold change vs veh, LRRFIP1 / RFU, NDUFAF7 / Fold change vs veh, NDUFAF7 / RFU, SLC12A2 / Fold change vs veh, SLC12A2 / RFU, IBTK / Fold change vs veh, IBTK / RFU, ESF1 / Fold change vs veh, ESF1 / Fold change vs veh, TMEM50B / RFU, TAOK1 / Fold change vs veh, TAOK1 / RFU, ACBD3 / Fold change vs veh, ACBD3 / RFU, TMA16 / Fold change vs veh, TMA16 / RFU, RWDD3 / Fold change vs veh, RWDD3 / RFU, BCAT1 / Fold change vs veh, BCAT1 / RFU, EDEM3 / Fold change vs veh, EDEM3 / RFU, TMEM33 / Fold change vs veh, TMEM33 / RFU, WDR75 / Fold change vs veh, WDR75 / RFU, AHCTF1 / Fold change vs veh, AHCTF1 / RFU, TFRC / Fold change vs veh, TFRC / RFU, ZDHHC17 / Fold change vs veh, ZDHHC17 / RFU, NOM1 / Fold change vs veh, NOM1 / RFU, ARL8B / Fold change vs veh, ARL8B / RFU, ZBTB11 / Fold change vs veh, ZBTB11 / RFU, TAMM41 / Fold change vs veh, TAMM41 / RFU, KIAA1704 /// LOC100996395 / Fold change vs veh, KIAA1704 /// LOC100996395 / RFU, ING1 / Fold change vs veh, ING1 / RFU, TRMT61B / Fold change vs veh, TRMT61B / RFU, FUBP3 / Fold change vs veh, FUBP3 / RFU, TP53 / Fold change vs veh, TP53 / RFU, TNKS2 / Fold change vs veh, TNKS2 / RFU, ZFP14 / Fold change vs veh, ZFP14 / RFU, ACTR2 / Fold change vs veh, ACTR2 / RFU, PPP3R1 / Fold change vs veh, PPP3R1 / RFU, PIK3R1 / Fold change vs veh, PIK3R1 / RFU, HNRNPA1 / Fold change vs veh, HNRNPA1 / RFU, RNF170 / Fold change vs veh, RNF170 / RFU, ZNF28 / Fold change vs veh, ZNF28 / RFU, RNGTT / Fold change vs veh, RNGTT / RFU, OGT / Fold change vs veh, OGT / RFU, BRD1 / Fold change vs veh, BRD1 / RFU, MARS / Fold change vs veh, MARS / RFU, ZNF655 / Fold change vs veh, ZNF655 / RFU, FAHD1 / Fold change vs veh, FAHD1 / RFU, BDP1 / Fold change vs veh, BDP1 / RFU, LRRCC1 / Fold change vs veh, LRRCC1 / RFU, ARID1A / Fold change vs veh, ARID1A / RFU, ZNF146 / Fold change vs veh, ZNF146 / RFU, ZNF330 / Fold change vs veh, ZNF330 / RFU, GPN3 / Fold change vs veh, GPN3 / RFU, C9orf123 / Fold change vs veh, C9orf123 / RFU, N4BP2L2 / Fold change vs veh, N4BP2L2 / RFU, ARFIP1 / Fold change vs veh, ARFIP1 / RFU, FAM179B / Fold change vs veh, FAM179B / RFU, BCL10 / Fold change vs veh, BCL10 / RFU, UHRF1BP1L / Fold change vs veh, UHRF1BP1L / RFU, BET1 / Fold change vs veh, BET1 / RFU, CNOT2 / Fold change vs veh, CNOT2 / RFU, ZNF268 / Fold change vs veh, ZNF268 / Fold change vs veh, ZNF507 / RFU, DGCR2 / Fold change vs veh, DGCR2 / RFU, WDSUB1 / Fold change vs veh, WDSUB1 / Fold change vs veh, HSP90B1 /// MIR3652 / RFU, ADSS / Fold change vs veh, ADSS / RFU, GK / Fold change vs veh, GK / RFU, ZNF148 / Fold change vs veh, ZNF148 / RFU, TAF9 / Fold change vs veh, TAF9 / RFU, SLC1A5 / Fold change vs veh, SLC1A5 / RFU, SLMO2 / Fold change vs veh, SLMO2 / RFU, ABCC4 / Fold change vs veh, ABCC4 / RFU, LOC101060439 /// RAP1B / Fold change vs veh, LOC101060439 /// RAP1B / RFU, RFX7 / Fold change vs veh, RFX7 / RFU, GTPBP10 / Fold change vs veh, GTPBP10 / RFU, CNEP1R1 / Fold change vs veh, CNEP1R1 / RFU, BIVM-ERCC5 /// ERCC5 / Fold change vs veh, BIVM-ERCC5 /// ERCC5 / RFU, ILF3 / Fold change vs veh, ILF3 / RFU 11762660_at / Fold change /veh 11762660_at / RFU VCAN (11757783_s_at) / Fold change /veh VCAN (11757783_s_at) / RFU DDX43 (11728927_at) / Fold change /veh DDX43 (11728927_at) / RFU KRT8 (11758188_x_at) / Fold change /veh KRT8 (11758188_x_at) / RFU NKD1 (11759106_at) / Fold change /veh NKD1 (11759106_at) / RFU SRD5A1 (11742802_a_at) / Fold change /veh SRD5A1 (11742802_a_at) / RFU TPSAB1 /// TPSB2 (11721975_s_at) / Fold change /veh TPSAB1 /// TPSB2 (11721975_s_at) / RFU GSTM3 (11746129_a_at) / Fold change /veh GSTM3 (11746129_a_at) / RFU IL23R (11737362_x_at) / Fold change /veh IL23R (11737362_x_at) / RFU TMEM51 (11727254_a_at) / Fold change /veh TMEM51 (11727254_a_at) / RFU PIWIL2 (11732686_x_at) / Fold change /veh PIWIL2 (11732686_x_at) / RFU ORM1 (11744905_x_at) / Fold change /veh ORM1 (11744905_x_at) / RFU CCDC152 (11743942_at) / Fold change /veh CCDC152 (11743942_at) / RFU ECM1 (11717891_a_at) / Fold change /veh ECM1 (11717891_a_at) / RFU IL23R (11748794_a_at) / Fold change /veh IL23R (11748794_a_at) / RFU TNFAIP8L3 (11732012_x_at) / Fold change /veh TNFAIP8L3 (11732012_x_at) / RFU MBOAT4 (11741988_at) / Fold change /veh MBOAT4 (11741988_at) / RFU 11764193_at / Fold change /veh 11764193_at / RFU TMEM53 (11763286_at) / Fold change /veh TMEM53 (11763286_at) / RFU MAGEB2 (11727129_at) / Fold change /veh MAGEB2 (11727129_at) / RFU TMEM200A (11744735_a_at) / Fold change /veh TMEM200A (11744735_a_at) / RFU CCDC152 (11751479_a_at) / Fold change /veh CCDC152 (11751479_a_at) / RFU FAM211A (11726209_a_at) / Fold change /veh FAM211A (11726209_a_at) / RFU RGS16 (11746705_a_at) / Fold change /veh RGS16 (11746705_a_at) / RFU VCAN (11755009_s_at) / Fold change /veh VCAN (11755009_s_at) / RFU RHOB (11743442_s_at) / Fold change /veh RHOB (11743442_s_at) / RFU RGS16 (11720943_a_at) / Fold change /veh RGS16 (11720943_a_at) / RFU RGS16 (11720944_at) / Fold change /veh RGS16 (11720944_at) / RFU, VPS4B / Fold change vs veh, VPS4B / RFU, CREB1 / Fold change vs veh, CREB1 / RFU, DNAJC13 / Fold change vs veh, DNAJC13 / RFU, GNAQ / Fold change vs veh, GNAQ / RFU, CDK5R1 / Fold change vs veh, CDK5R1 / RFU, ZRANB3 / Fold change vs veh, ZRANB3 / RFU, CUL4A / Fold change vs veh, CUL4A / RFU, CCNY / Fold change vs veh, CCNY / RFU, UFL1 / Fold change vs veh, UFL1 / RFU, COG3 / Fold change vs veh, COG3 / RFU, DIAPH2 / Fold change vs veh, DIAPH2 / RFU, SKA2 / Fold change vs veh, SKA2 / RFU, AFF3 / Fold change vs veh, AFF3 / RFU, LMF1 / Fold change vs veh, LMF1 / RFU, IPO11 / Fold change vs veh, IPO11 / RFU, DFFB / Fold change vs veh, DFFB / RFU, FOXP1 / Fold change vs veh, FOXP1 / RFU, CARD8 / Fold change vs veh, CARD8 / RFU, STRN3 / Fold change vs veh, STRN3 / RFU, ADK / Fold change vs veh, ADK / RFU, RASSF2 / Fold change vs veh, RASSF2 / RFU, WIPF1 / Fold change vs veh, WIPF1 / RFU, LARP1B / Fold change vs veh, LARP1B / RFU, RASA1 / Fold change vs veh, RASA1 / RFU, RB1 / Fold change vs veh, RB1 / RFU, PPFIA1 / Fold change vs veh, PPFIA1 / RFU, MAT2A / Fold change vs veh, MAT2A / RFU, CCT5 / Fold change vs veh, CCT5 / RFU, WDR92 / Fold change vs veh, WDR92 / RFU, CUX1 / Fold change vs veh, CUX1 / RFU, TTC7A / Fold change vs veh, TTC7A / RFU, TMEM135 / Fold change vs veh, TMEM135 / RFU, DEPTOR / Fold change vs veh, DEPTOR / RFU, CPM / Fold change vs veh, CPM / RFU, DNAJB6 / Fold change vs veh, DNAJB6 / RFU, CACNA2D3 / Fold change vs veh, CACNA2D3 / RFU, DTX4 / Fold change vs veh, DTX4 / RFU, TFCP2 / Fold change vs veh, TFCP2 / RFU, GMCL1 /// GMCL1P1 / Fold change vs veh, GMCL1 /// GMCL1P1 / RFU, AEBP2 / Fold change vs veh, AEBP2 / RFU, SNHG1 /// SNORD22 /// SNORD25 /// SNORD26 /// SNORD27 /// SNORD28 /// SNORD29 /// SNORD31 / Fold change vs veh, SNHG1 /// SNORD22 /// SNORD25 /// SNORD26 /// SNORD27 /// SNORD28 /// SNORD29 /// SNORD31 / Fold change (Aza/veh), C12orf56 (ProbeSet 11735607_a_at) / Fold change (ACY-1035/veh), C12orf56 (ProbeSet 11735607_a_at) / Fold change (Aza/veh), FGFR1OP (ProbeSet 11751329_s_at) / Fold change (ACY-1035/veh), FGFR1OP (ProbeSet 11751329_s_at) / Fold change (Aza/veh), VPS36 (ProbeSet 11739960_a_at) / Fold change (ACY-1035/veh), VPS36 (ProbeSet 11739960_a_at) / RFU SYPL1 (11715823_x_at) / Fold change /veh SYPL1 (11715823_x_at) / RFU IGFBP7 (11715501_s_at) / Fold change /veh IGFBP7 (11715501_s_at) / RFU REEP3 (11722064_at) / Fold change /veh REEP3 (11722064_at) / RFU IGLL1 (11728026_x_at) / Fold change /veh IGLL1 (11728026_x_at): dose or concentration left out as unconfirmed", "conditions": "MV-4-11 cells, 48 hours", "data": [{"compound": "Nc1ccc(-c2cccs2)cc1NC(=O)c1ccc2c(c1)cc(C1CC1)n2CCN1CCOCC1", "note": "[ACY-1035]", "values": [{"measurement": "RFU C1QL1 (11718748_at)", "result": 611.11, "unit": "RFU"}]}]}
